According to ChEMBL document CHEMBL5365420, “Kinetics, Thermodynamics, and Structural Effects of Quinoline-2-Carboxylates, Zinc-Binding Inhibitors of New Delhi Metallo-β-lactamase-1 Re-sensitizing Multidrug-Resistant Bacteria for Carbapenems” (J Med Chem, 2023):

Experiments:
Type in all cases: functional
Escherichia coli [1] = assay: Antibacterial activity against clinical isolate Escherichia coli K12 J53-ST10 699/15 expressing blaNDM-1 assessed as meropenem MIC at 23.5 uM measured after 20 hrs by broth microdilution assay (reference value: 5.03 mg/L)
Klebsiella pneumoniae [2] = assay: Antibacterial activity against clinical isolate Klebsiella pneumoniae 50/11 expressing blaNDM-1 co-expressing blaTEM-1/blaSHV-28/blaTEM-1/blaCTX-M-15 and blaOXA-1 assessed as meropenem MIC at 23.5 uM measured after 20 hrs by broth microdilution assay (reference value: 5.03 mg/L)
Klebsiella pneumoniae [3] = assay: Antibacterial activity against clinical isolate Klebsiella pneumoniae ST23213/19 expressing blaNDM-1 co-expressing blaOXA-48/blaSHV-11/blaCTX-M-15 and blaOXA-1 assessed as meropenem MIC at 23.5 uM measured after 20 hrs by broth microdilution assay (reference value: 5.03 mg/L)
Klebsiella pneumoniae [4] = assay: Antibacterial activity against clinical isolate Klebsiella pneumoniae ST1493/10 expressing blaNDM-1 co-expressing blaCMY-2like/blaTEM-1/blaCTX-M-15/blaSHV-28/blaOXA-1 and blaOXA-9 assessed as meropenem MIC at 23.5 uM measured after 20 hrs by broth microdilution assay (reference value: 5.03 mg/L)
Escherichia coli [5] = assay: Antibacterial activity against clinical isolate Escherichia coli K12 J53-ST10 696/17 expressing blaNDM-1 co-expressing blaCMY-4 assessed as meropenem MIC at 23.5 uM measured after 20 hrs by broth microdilution assay (reference value: 5.03 mg/L)
Escherichia coli [6] = assay: Antibacterial activity against clinical isolate Escherichia coli K12 J53-ST10 618/15 expressing blaNDM-1 assessed as meropenem MIC at 47 uM measured after 20 hrs by broth microdilution assay (reference value: 10.06 mg/L)
Escherichia coli [7] = assay: Antibacterial activity against clinical isolate Escherichia coli K12 J53-ST10 696/17 expressing blaNDM-1 co-expressing blaCMY-4 assessed as meropenem MIC at 47 uM measured after 20 hrs by broth microdilution assay (reference value: 10.06 mg/L)
Klebsiella pneumoniae [8] = assay: Antibacterial activity against clinical isolate Klebsiella pneumoniae 50/20 expressing blaNDM-5 co-expressing blaTEM-1 and blaSHV-1 assessed as meropenem MIC at 47 uM measured after 20 hrs by broth microdilution assay (reference value: 10.06 mg/L)
Klebsiella pneumoniae [9] = assay: Antibacterial activity against clinical isolate Klebsiella pneumoniae 62/07 expressing blaVIM-19 co-expressing blaSHV-1/blaCTX-M-14 and blaCMY-4 assessed as meropenem MIC at 23.5 uM measured after 20 hrs by broth microdilution assay (reference value: 5.03 mg/L)
Escherichia coli [10] = assay: Antibacterial activity against clinical isolate Escherichia coli ST1012/10 expressing blaNDM-1 co-expressing blaTEM-1/blaCTX-M-15/blaOXA-1 and blaOXA-2 assessed as meropenem MIC at 47 uM measured after 20 hrs by broth microdilution assay (reference value: 10.06 mg/L)
Escherichia coli [11] = assay: Antibacterial activity against clinical isolate Escherichia coli K12 J53-ST10 684/18 expressing blaNDM-1 co-expressing blaCMY-2 and blaOXA-10 assessed as meropenem MIC at 47 uM measured after 20 hrs by broth microdilution assay (reference value: 10.06 mg/L)
Escherichia coli [12] = assay: Antibacterial activity against clinical isolate Escherichia coli ST1012/10 expressing blaNDM-1 co-expressing blaTEM-1/blaCTX-M-15/blaOXA-1 and blaOXA-2 assessed as meropenem MIC at 23.5 uM measured after 20 hrs by broth microdilution assay (reference value: 5.03 mg/L)
Acinetobacter baumannii [13] = assay: Antibacterial activity against clinical isolate Acinetobacter baumannii IC 19/09 expressing blaNDM-1 co-expressing blaOXA-64 assessed as meropenem MIC at 23.5 uM measured after 20 hrs by broth microdilution assay (reference value: 5.03 mg/L)
Escherichia coli [14] = assay: Antibacterial activity against clinical isolate Escherichia coli K12 J53-ST10 684/18 expressing blaNDM-1 co-expressing blaCMY-2 and blaOXA-10 assessed as meropenem MIC at 23.5 uM measured after 20 hrs by broth microdilution assay (reference value: 5.03 mg/L)
Klebsiella pneumoniae [15] = assay: Antibacterial activity against clinical isolate Klebsiella pneumoniae 50/11 expressing blaNDM-1 co-expressing blaTEM-1/blaSHV-28/blaTEM-1/blaCTX-M-15 and blaOXA-1 assessed as meropenem MIC at 47 uM measured after 20 hrs by broth microdilution assay (reference value: 10.06 mg/L)
Klebsiella pneumoniae [16] = assay: Antibacterial activity against clinical isolate Klebsiella pneumoniae ST23213/19 expressing blaNDM-1 co-expressing blaOXA-48/blaSHV-11/blaCTX-M-15 and blaOXA-1 assessed as meropenem MIC at 47 uM measured after 20 hrs by broth microdilution assay (reference value: 10.06 mg/L)
Escherichia coli [17] = assay: Antibacterial activity against clinical isolate Escherichia coli 371/12 expressing blaNDM-7 co-expressing blaCTX-M-15 and blaOXA-1 assessed as meropenem MIC at 47 uM measured after 20 hrs by broth microdilution assay (reference value: 10.06 mg/L)
Escherichia coli [18] = assay: Antibacterial activity against clinical isolate Escherichia coli K12 J53-ST10 618/15 expressing blaNDM-1 assessed as meropenem MIC at 23.5 uM measured after 20 hrs by broth microdilution assay (reference value: 5.03 mg/L)
Escherichia coli [19] = assay: Antibacterial activity against clinical isolate Escherichia coli K12 J53-ST10 699/15 expressing blaNDM-1 assessed as meropenem MIC at 47 uM measured after 20 hrs by broth microdilution assay (reference value: 10.06 mg/L)
Klebsiella pneumoniae [20] = assay: Antibacterial activity against clinical isolate Klebsiella pneumoniae 50/20 expressing blaNDM-5 co-expressing blaTEM-1 and blaSHV-1 assessed as meropenem MIC at 23.5 uM measured after 20 hrs by broth microdilution assay (reference value: 5.03 mg/L)
Escherichia coli [21] = assay: Antibacterial activity against clinical isolate Escherichia coli 371/12 expressing blaNDM-7 co-expressing blaCTX-M-15 and blaOXA-1 assessed as meropenem MIC at 23.5 uM measured after 20 hrs by broth microdilution assay (reference value: 5.03 mg/L)
Klebsiella pneumoniae [22] = assay: Antibacterial activity against clinical isolate Klebsiella pneumoniae 62/07 expressing blaVIM-19 co-expressing blaSHV-1/blaCTX-M-14 and blaCMY-4 assessed as meropenem MIC at 47 uM measured after 20 hrs by broth microdilution assay (reference value: 10.06 mg/L)
Klebsiella pneumoniae [23] = assay: Antibacterial activity against clinical isolate Klebsiella pneumoniae ST1493/10 expressing blaNDM-1 co-expressing blaCMY-2like/blaTEM-1/blaCTX-M-15/blaSHV-28/blaOXA-1 and blaOXA-9 assessed as meropenem MIC at 47 uM measured after 20 hrs by broth microdilution assay (reference value: 10.06 mg/L)
Acinetobacter baumannii [24] = assay: Antibacterial activity against clinical isolate Acinetobacter baumannii IC 19/09 expressing blaNDM-1 co-expressing blaOXA-64 assessed as meropenem MIC at 47 uM measured after 20 hrs by broth microdilution assay (reference value: 10.06 mg/L)

MIC (Escherichia coli [1]): ≤ 0.125 µg/mL
MIC (Klebsiella pneumoniae [2]): 4 µg/mL
MIC (Klebsiella pneumoniae [3]): 128 µg/mL
MIC (Klebsiella pneumoniae [4]): 128 µg/mL
MIC (Escherichia coli [5]): ≤ 0.125 µg/mL
MIC (Escherichia coli [6]): ≤ 0.125 µg/mL
MIC (Escherichia coli [7]): ≤ 0.125 µg/mL
MIC (Klebsiella pneumoniae [8]): ≤ 0.125 µg/mL
MIC (Klebsiella pneumoniae [9]): 8 µg/mL
MIC (Escherichia coli [10]): ≤ 0.125 µg/mL
MIC (Escherichia coli [11]): ≤ 0.125 µg/mL
MIC (Escherichia coli [12]): ≤ 0.125 µg/mL
MIC (Acinetobacter baumannii [13]): ≤ 0.125 µg/mL
MIC (Escherichia coli [14]): ≤ 0.125 µg/mL
MIC (Klebsiella pneumoniae [15]): ≤ 0.125 µg/mL
MIC (Klebsiella pneumoniae [16]): 16 µg/mL
MIC (Escherichia coli [17]): ≤ 0.125 µg/mL
MIC (Escherichia coli [18]): ≤ 0.125 µg/mL
MIC (Escherichia coli [19]): ≤ 0.125 µg/mL
MIC (Klebsiella pneumoniae [20]): 4 µg/mL
MIC (Escherichia coli [21]): ≤ 0.125 µg/mL
MIC (Klebsiella pneumoniae [22]): ≤ 0.125 µg/mL
MIC (Klebsiella pneumoniae [23]): 16 µg/mL
MIC (Acinetobacter baumannii [24]): ≤ 0.125 µg/mL
Compound: Oc1c(Cl)cc(Cl)c2cccnc12 [CHLOROXINE]
